According to ChEMBL document CHEMBL1201862, “PubChem BioAssay data set” (2004):
Blank lines part the entries; values can stand above or below the molecule they belong to. Activity calls are given as the source filed them.

How the values were obtained:
Assay type in all cases: functional
[1] = molecular target: DNA dC->dU-editing enzyme APOBEC-3G (Homo sapiens, UniProt Q9HC16);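 also: Dose-response counterscreen measuring inhibition of APOBEC3G DNA deaminase activity, run while confirming APOBEC3A inhibitors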
Chain of DNA dC->dU-editing enzyme APOBEC-3G (Q9HC16 whole entry): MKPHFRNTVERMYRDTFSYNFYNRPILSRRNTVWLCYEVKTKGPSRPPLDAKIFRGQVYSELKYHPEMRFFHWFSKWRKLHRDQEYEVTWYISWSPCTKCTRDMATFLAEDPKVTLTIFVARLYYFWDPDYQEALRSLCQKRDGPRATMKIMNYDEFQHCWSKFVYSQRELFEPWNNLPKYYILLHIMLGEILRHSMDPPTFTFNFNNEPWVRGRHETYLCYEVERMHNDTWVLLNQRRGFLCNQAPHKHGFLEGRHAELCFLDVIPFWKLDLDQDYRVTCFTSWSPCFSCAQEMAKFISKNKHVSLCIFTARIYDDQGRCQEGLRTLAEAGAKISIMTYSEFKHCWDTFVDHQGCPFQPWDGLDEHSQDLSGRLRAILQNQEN

[2] = molecular target: DNA dC->dU-editing enzyme APOBEC-3A (Homo sapiens, UniProt P31941); experiment: Dose Response confirmation of small molecule APOBEC3A DNA Deaminase Inhibitors via a fluorescence-based single-stranded DNA deaminase assay. [Related pubchem assays (depositor defined):AID493011, AID493024]
Chain of DNA dC->dU-editing enzyme APOBEC-3A (P31941 whole entry): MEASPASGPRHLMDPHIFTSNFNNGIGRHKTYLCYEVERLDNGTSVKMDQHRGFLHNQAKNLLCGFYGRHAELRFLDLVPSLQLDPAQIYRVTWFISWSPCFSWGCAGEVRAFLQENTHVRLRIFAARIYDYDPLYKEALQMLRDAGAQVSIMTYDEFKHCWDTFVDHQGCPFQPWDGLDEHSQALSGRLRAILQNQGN

[3] = molecular target: Tyrosine-protein phosphatase non-receptor type 11 (Homo sapiens, UniProt Q06124); experiment: PTPN11 enzyme inhibitors – biochemical, selectivity assay for STEP inhibitor project, dose response (AID 602367); conditions: read-out: IC50_Mean
[4] = molecular target: Tyrosine-protein phosphatase non-receptor type 5 (Homo sapiens, UniProt P54829); experiment: PTPN5 enzyme inhibition – biochemical, fluorescence intensity, uHTS hits, confirmation (AID 602372); conditions: read-out: IC50_Mean
Chain of Tyrosine-protein phosphatase non-receptor type 5 (P54829 whole entry): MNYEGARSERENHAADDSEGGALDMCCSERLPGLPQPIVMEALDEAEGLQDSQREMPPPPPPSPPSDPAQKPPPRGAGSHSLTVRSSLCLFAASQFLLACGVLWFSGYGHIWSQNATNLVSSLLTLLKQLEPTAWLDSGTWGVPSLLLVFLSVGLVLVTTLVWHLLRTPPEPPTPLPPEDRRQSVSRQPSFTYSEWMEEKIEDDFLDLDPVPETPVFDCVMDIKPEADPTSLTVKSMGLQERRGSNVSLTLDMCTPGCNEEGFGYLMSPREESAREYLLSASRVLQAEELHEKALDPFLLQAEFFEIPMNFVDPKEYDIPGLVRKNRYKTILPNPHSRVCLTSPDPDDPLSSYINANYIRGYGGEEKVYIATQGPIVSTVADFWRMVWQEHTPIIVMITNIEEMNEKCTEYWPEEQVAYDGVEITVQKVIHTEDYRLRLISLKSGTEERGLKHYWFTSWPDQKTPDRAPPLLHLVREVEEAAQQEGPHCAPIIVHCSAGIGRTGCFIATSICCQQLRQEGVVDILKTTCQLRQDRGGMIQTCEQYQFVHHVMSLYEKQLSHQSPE

[5] = molecular target: T1, Dual specificity protein phosphatase 3 (Homo sapiens, UniProt P51452); experiment: VHR phosphatase inhibition, dose response, selectivity assay for STEP inhibitor project, biochemical (AID 602374); conditions: read-out: IC50_Mean
T1 sequence (P51452 whole entry, the tested form may be a part): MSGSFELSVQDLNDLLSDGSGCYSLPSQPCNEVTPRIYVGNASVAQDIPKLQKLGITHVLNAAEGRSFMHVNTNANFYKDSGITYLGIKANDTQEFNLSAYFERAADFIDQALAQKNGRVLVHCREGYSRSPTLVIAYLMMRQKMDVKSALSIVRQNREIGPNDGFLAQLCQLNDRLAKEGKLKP

[6] = molecular target: T2, Carboxy-terminal domain RNA polymerase II polypeptide A small phosphatase 1 (Homo sapiens, UniProt Q9GZU7); experiment: CTDSP1 inhibitors, concentration-response, biochemical, absorbance readout, ultra-high-throughput screen actives (AID 540297)
T2 sequence (Q9GZU7 whole entry): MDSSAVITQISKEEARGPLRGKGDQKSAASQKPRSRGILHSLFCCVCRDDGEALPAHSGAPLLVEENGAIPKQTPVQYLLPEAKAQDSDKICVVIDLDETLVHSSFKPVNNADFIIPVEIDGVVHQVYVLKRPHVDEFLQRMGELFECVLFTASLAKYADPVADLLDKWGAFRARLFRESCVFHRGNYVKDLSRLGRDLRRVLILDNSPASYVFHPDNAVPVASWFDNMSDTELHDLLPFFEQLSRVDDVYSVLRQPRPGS

[7] = molecular target: Mucolipin-3 (Homo sapiens, UniProt Q8TDD5); experiment: Fluorescence counterscreen assay for […] agonists: dose response cell-based high-throughput screening assay to identify agonists of the transient receptor potential channel ML3 (TRPML3). [Related pubchem assays: 1424, 1448 ]
Chain of Mucolipin-3 (Q8TDD5 whole entry): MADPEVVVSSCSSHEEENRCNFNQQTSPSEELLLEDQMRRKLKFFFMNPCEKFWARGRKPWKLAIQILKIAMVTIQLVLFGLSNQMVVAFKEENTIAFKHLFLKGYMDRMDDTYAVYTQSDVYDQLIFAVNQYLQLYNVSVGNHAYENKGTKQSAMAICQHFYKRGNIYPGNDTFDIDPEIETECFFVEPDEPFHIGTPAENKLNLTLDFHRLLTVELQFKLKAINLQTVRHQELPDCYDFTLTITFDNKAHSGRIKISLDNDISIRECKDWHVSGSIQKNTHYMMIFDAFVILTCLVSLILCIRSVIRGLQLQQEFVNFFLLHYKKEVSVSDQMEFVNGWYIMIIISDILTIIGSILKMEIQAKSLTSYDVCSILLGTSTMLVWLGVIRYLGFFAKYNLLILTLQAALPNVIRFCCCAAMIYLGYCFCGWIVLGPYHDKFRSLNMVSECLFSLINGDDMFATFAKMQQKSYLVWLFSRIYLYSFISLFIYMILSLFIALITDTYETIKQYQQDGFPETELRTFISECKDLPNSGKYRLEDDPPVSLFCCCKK

[8] = molecular target: Ion channel NompC (Danio rerio, UniProt Q7T1G6); experiment: Dose response cell-based high-throughput screening assay for agonists of the transient receptor potential channel N1 (TRPN1). [Related pubchem assays (depositor defined):AID1424, AID1448]
Chain of Ion channel NompC (Q7T1G6 whole entry): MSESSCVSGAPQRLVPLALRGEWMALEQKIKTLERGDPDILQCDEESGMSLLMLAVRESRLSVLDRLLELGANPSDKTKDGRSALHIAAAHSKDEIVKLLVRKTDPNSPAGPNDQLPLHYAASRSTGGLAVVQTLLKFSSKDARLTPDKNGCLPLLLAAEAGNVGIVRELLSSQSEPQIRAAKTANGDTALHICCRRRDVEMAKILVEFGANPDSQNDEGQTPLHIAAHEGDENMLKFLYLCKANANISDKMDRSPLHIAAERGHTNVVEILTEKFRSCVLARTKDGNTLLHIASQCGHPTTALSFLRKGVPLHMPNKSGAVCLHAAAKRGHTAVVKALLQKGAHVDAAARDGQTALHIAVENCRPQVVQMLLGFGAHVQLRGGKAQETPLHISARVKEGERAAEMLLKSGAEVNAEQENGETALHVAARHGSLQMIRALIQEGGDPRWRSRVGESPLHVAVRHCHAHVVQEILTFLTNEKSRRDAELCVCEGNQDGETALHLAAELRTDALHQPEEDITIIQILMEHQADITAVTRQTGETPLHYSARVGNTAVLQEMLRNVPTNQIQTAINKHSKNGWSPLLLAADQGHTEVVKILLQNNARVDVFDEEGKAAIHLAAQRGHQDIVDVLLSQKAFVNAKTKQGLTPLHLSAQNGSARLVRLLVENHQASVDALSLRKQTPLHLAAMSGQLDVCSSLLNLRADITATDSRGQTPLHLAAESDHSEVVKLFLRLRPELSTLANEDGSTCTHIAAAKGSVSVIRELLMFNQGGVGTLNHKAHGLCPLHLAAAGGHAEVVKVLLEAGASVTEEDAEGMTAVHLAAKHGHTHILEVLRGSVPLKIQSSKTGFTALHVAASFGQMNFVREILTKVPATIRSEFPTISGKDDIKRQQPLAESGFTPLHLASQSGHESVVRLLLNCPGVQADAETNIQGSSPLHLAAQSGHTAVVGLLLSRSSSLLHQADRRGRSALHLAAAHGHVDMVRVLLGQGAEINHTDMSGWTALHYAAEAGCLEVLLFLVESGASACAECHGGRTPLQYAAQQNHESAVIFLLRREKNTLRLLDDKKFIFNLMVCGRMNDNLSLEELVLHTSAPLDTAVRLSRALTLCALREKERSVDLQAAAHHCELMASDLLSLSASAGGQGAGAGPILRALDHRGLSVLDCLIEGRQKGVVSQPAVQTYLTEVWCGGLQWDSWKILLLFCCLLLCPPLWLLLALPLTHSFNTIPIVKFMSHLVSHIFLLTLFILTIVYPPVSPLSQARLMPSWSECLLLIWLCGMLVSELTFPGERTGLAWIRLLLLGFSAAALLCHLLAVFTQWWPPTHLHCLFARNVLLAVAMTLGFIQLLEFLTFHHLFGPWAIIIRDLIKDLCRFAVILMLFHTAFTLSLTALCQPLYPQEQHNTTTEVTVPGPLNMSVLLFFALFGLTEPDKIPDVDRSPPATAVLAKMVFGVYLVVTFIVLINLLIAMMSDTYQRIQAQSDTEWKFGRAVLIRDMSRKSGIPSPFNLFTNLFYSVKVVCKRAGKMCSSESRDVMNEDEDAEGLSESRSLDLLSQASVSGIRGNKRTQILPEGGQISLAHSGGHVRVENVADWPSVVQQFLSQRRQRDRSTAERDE

[9] = molecular target: T1, Dual specificity protein phosphatase 3; experiment: SAR VHR1 Fluorescent Assay for In Vitro dose response studies Set 2. [Related pubchem assays (depositor defined):AID1654, AID1661, AID1878]
[10] = molecular target: T3, Tyrosine-protein phosphatase non-receptor type 7 (Homo sapiens, UniProt P35236); experiment: redox-active compounds inhibiting HePTP phosphatase – biochemical, fluorescence, mechanism study (AID 2068)
T3 sequence (P35236 whole entry): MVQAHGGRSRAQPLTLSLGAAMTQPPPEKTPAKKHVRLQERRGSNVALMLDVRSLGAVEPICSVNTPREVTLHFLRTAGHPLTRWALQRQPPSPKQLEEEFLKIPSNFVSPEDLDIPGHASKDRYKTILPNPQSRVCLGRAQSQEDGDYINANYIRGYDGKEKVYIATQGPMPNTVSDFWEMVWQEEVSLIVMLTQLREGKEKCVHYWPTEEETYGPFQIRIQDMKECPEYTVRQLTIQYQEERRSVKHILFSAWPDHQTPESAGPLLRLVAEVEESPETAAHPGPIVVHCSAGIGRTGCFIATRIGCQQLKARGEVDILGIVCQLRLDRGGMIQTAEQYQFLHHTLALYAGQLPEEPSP

[11] = molecular target: T4, Dual specificity protein phosphatase 6 (Rattus norvegicus, UniProt Q64346);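 also: confirmatory in vitro dose-response testing of MKP-3 inhibition; recombinant His-tagged MKP-3 made in E. coli BL21 with OMFP substrate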
T4 sequence (Q64346 whole entry): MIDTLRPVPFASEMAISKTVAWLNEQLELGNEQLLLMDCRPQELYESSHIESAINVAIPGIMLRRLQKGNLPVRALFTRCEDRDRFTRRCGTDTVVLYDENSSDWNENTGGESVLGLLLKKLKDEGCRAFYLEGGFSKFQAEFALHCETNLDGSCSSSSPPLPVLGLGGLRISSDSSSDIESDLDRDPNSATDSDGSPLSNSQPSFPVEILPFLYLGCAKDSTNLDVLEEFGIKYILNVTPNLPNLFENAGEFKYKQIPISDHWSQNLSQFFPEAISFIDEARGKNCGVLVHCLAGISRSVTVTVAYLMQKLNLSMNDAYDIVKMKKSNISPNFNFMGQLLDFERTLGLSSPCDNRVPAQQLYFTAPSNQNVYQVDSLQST

SMILES: COc1cccc(N2[C@@H](CC(=O)O)c3ccc(/C=C/C(=O)O)cc3S2(=O)=O)c1
IC50 [1]: 41.2 µM (active)
IC50 [2]: 12.2 µM (active)
IC50 [3]: 0.933 µM (active)
IC50 [4]: 52.1 µM (inactive)
IC50 [5]: 2.49 µM (active)
IC50 [6]: 2.88 µM (active)

EC50 [7]: > 29.9 µM (not active)
EC50 [8]: > 29.9 µM (inactive)
SMILES: CCN1CCN(CCNC(=O)c2cn(Cc3ccccc3F)nn2)CC1

SMILES: Cc1ccc(NC(=O)CN2C(=O)S/C(=C\c3ccc(C(=O)O)cc3)C2=O)cc1
IC50 [9]: > 100 µM (inactive)
IC50 [10]: 14.4 µM (active)
IC50 [11]: > 100 µM (inactive)
